Experimental data: patent publication US20210015811A1, “METHODS OF TREATING A PULMONARY BACTERIAL INFECTION USING FLUOROQUINOLONES” (HORIZON ORPHAN, LLC, priority 2009, published 2021)
≈ marks a conversion by molar mass, not a printed value.

Experiments:
[1] = tested on: 114 CF P. aeruginosa isolates; assay: Aerobic and anaerobic MIC susceptibility testing (broth microdilution, CLSI); format: cell-based, Pseudomonas aeruginosa; settings: for aerobic versus anaerobic MIC distribution (potency under anaerobic conditions): all 114 P. aeruginosa isolates, FIGS. 2A-D; for increase of geometric mean of the MIC by anaerobic incubation / increase of MIC50 under anaerobic conditions: 114 CF isolates; for increase of MIC50 under anaerobic conditions: CAMHB + 1% KNO3 for anaerobic
Source text: One hundred and fourteen CF P. aeruginosa isolates were obtained for susceptibility testing from the CF Referral Center for Susceptibility & Synergy Studies at Columbia University (New York, N.Y.) and also from two CF Therapeutics Development Network (TDN) laboratories (Seattle Children's Hospital, Seattle, Wash. and University of North Carolina at Chapel Hill, Chapel Hill, N.C.). About sixty percent were recent isolates (2004-2007) with the remaining forty percent isolated between 1980 and 2004.
The antibiotics used in these studies included tobramycin, levofloxacin, amikacin, and aztreonam which are in use or in development as aerosolized therapies for CF. For aerobic susceptibility tests, levofloxacin hydrochloride, tobramycin sulfate, and amikacin disulfate were purchased from LKT Laboratories (St. Paul, Minn.) and aztreonam base was purchased from MP Biomedicals (Solon, Ohio). All antibiotics used for anaerobic susceptibility tests were purchased from the United States Pharmacopeia (Rockville, Md.).
(§1) Antibiotic MIC endpoints were obtained using the broth microdilution method according to the CLSI reference method. See Clinical and Laboratory Standards Institute. Methods for Dilution Antimicrobial Susceptibility Tests for Bacteria That Grow Aerobically—Seventh Edition: Approved Standard M7-A7. CLSI, Wayne, Pa., USA, 2006. Antibiotics were serially diluted to the following concentrations for aerobic testing: levofloxacin and tobramycin from 0.03-32 mg/L and amikacin and aztreonam from 0.125-128 mg/L. Anaerobic susceptibility testing required the addition of 1% potassium nitrate (KNO3) to cation-adjusted Mueller-Hinton broth (CAMHB) to allow for P. aeruginosa anaerobic respiration. For anaerobic testing, frozen MIC plates were thawed and stored in the anaerobic chamber overnight to ensure elimination of all oxygen prior to inoculation with test strains. The dilution range for all antibiotics was 0.125-128 mg/L for the anaerobic susceptibility tests. Extended incubation of up to 48 hours under anaerobic conditions may be required and was needed for 54% of the isolates.

[2] = tested on: P. aeruginosa strain PAM1481 (na1B gyrA (Asp87Tyr)); assay: Levofloxacin MIC against isogenic strain PAM1481; format: cell-based; settings: Pseudomonas aeruginosa
Source text: (§2) P. aeruginosa strains PAM1020 (wild-type), PAM1032 (na1B), PAM1481 (na1B gyrA (Asp87Tyr)), and PAM1573 (na1B gyrA (Thr83Ile)) represent relevant efflux-mediated and target mutation resistance mechanisms and were used in the levofloxacin time-kill assays.
as §1, with “The dilution range for all antibiotics was 0.125-128 mg/L for the anaerobic susceptibility tests. Extended incubation of up to 48 hours under anaerobic conditions may be required and was needed for 54% of the isolates.” left out
(§3) Aerobic and hypoxic Mueller-Hinton broth (MHB) cultures were diluted to an initial inoculum of 1×10^7-1×10^8 CFU/ml. […] Agar plates were incubated up to 48 hours at 37° C. and bactericidal activity was assessed. […]

[3] = tested on: P. aeruginosa strain PAM1573 (na1B gyrA (Thr83Ile)); assay: Levofloxacin MIC against isogenic strain PAM1573; format: cell-based; settings: Pseudomonas aeruginosa
Source text: as §2
as §1, with “The dilution range for all antibiotics was 0.125-128 mg/L for the anaerobic susceptibility tests. Extended incubation of up to 48 hours under anaerobic conditions may be required and was needed for 54% of the isolates.” left out
as §3

[4] = tested on: P. aeruginosa strain PAM1020 (wild-type); assay: Levofloxacin MIC against isogenic strain PAM1020; format: cell-based; settings: Pseudomonas aeruginosa
Source text: as §2
as §1, with “The dilution range for all antibiotics was 0.125-128 mg/L for the anaerobic susceptibility tests. Extended incubation of up to 48 hours under anaerobic conditions may be required and was needed for 54% of the isolates.” left out
as §3

[5] = tested on: P. aeruginosa strain PAM1032 (na1B); assay: Levofloxacin MIC against isogenic strain PAM1032; format: cell-based; settings: Pseudomonas aeruginosa
Source text: as §2
as §1, with “The dilution range for all antibiotics was 0.125-128 mg/L for the anaerobic susceptibility tests. Extended incubation of up to 48 hours under anaerobic conditions may be required and was needed for 54% of the isolates.” left out
as §3

[6] = anaerobic vs aerobic incubation

| SMILES | aerobic versus anaerobic MIC distribution (potency under anaerobic conditions) [1] | increase of geometric mean of the MIC by anaerobic incubation [1, 6] | increase of MIC50 under anaerobic conditions [1, 6] [fold] | isolates with MIC increase >4-fold under anaerobic conditions ([1]; anaerobic vs aerobic incubation, share of 114 CF isolates) [%] | MIC [2] [µg/mL] | MIC [3] [µg/mL] | MIC [4] [µg/mL] | MIC [5] [µg/mL] |
| --- | --- | --- | --- | --- | --- | --- | --- | --- |
| C[C@H]1[C@H](NC(=O)/C(=N\OC(C)(C)C(=O)O)c2csc(N)n2)C(=O)N1S(=O)(=O)O [aztreonam] | reduced potency | ~6 fold | 16 | – | – | – | – | – |
| NCC[C@H](O)C(=O)N[C@@H]1C[C@H](N)[C@@H](O[C@H]2O[C@H](CN)[C@@H](O)[C@H](O)[C@H]2O)[C@H](O)[C@H]1O[C@H]1O[C@H](CO)[C@@H](O)[C@H](N)[C@H]1O [amikacin] | reduced potency | ~4 fold | – | – | – | – | – | – |
| C[C@H]1COc2c(N3CCN(C)CC3)c(F)cc3c(=O)c(C(=O)O)cn1c23 [levofloxacin] | – | – | 2 | 4 | 4 (≈ 11.1 µM) | 8 (≈ 22.1 µM) | 0.125 (≈ 0.346 µM) | 1 (≈ 2.77 µM) |
| NC[C@H]1O[C@H](O[C@H]2[C@H](O)[C@@H](O[C@H]3O[C@H](CO)[C@@H](O)[C@H](N)[C@H]3O)[C@H](N)C[C@@H]2N)[C@H](N)C[C@@H]1O [tobramycin] | reduced potency | approximately 7 fold | 4 | – | – | – | – | – |
